Measured values from US12404283B2, “c-MYC mRNA translation modulators and uses thereof in the treatment of cancer” (Anima Biotech Inc., priority 2022, dated 2025).
Structures can show the parent of a compound that is named as a salt.

Each compound was assayed on c-Myc (assay: c-Myc immunofluorescence assay). Conditions: A549 cells, 24 hours treatment, anti-c-Myc immunofluorescence.
Assay type: cell-based, human
Summary of the method: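 High-content imaging (20×) of PFA-fixed A549 cells immunostained for c-Myc with DAPI nuclei, after 24 h compound treatment at increasing concentrations. Per-cell c-Myc signal in identified cell regions was plotted against dose and fitted by logistic regression to give EC50.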

Question: With `CCc1ccc(-c2cn3c(n2)sc2cc(C(=O)NCCCN(CC)CC)ccc23)cc1` [compound 126, N-(3-(diethylamino)propyl)-2-(4-ethylphenyl)benzo[d] imidazo[2,1-b]thiazole-7-carboxamide] as the compound, how does the “Myc Efficacy (−LogEC50)” value read?
Answer: ++ (++ ≥5 and <6)

Question: For `CCN1CCC[C@@H]1CNC(=O)c1ccc2c(c1)sc1nc(-c3cccc(OC)c3)cn12` [compound 127, (R)-N-((1-ethylpyrrolidin-2-yl)methyl)-2-(3-methoxyphenyl)benzo[d] imidazo[2,1-b]thiazole-7-carboxamide], which “Myc Efficacy (−LogEC50)” value is on record?
Answer: + (+ >3 and <5)

Question: How did the “Myc Efficacy (−LogEC50)” value turn out when `CCN(CC)CCCNC(=O)c1ccc2c(c1)sc1nc(-c3ccccc3F)cn12` [compound 129, N-(3-(diethylamino)propyl)-2-(2-fluorophenyl)benzo[d] imidazo[2,1-b]thiazole-7-carboxamide] was run?
Answer: ++ (++ ≥5 and <6)

Question: With `CCN(CC)CCCNC(=O)c1ccc2c(c1)sc1nc(-c3cccc(F)c3)cn12` [compound 130, N-(3-(diethylamino)propyl)-2-(3-fluorophenyl)benzo[d] imidazo[2,1-b]thiazole-7-carboxamide] as the compound, how does the “Myc Efficacy (−LogEC50)” value read?
Answer: ++ (++ ≥5 and <6)

Question: How did the “Myc Efficacy (−LogEC50)” value turn out when `CCN(CC)CCCNC(=O)c1ccc2c(c1)sc1nc(-c3cccc(Cl)c3)cn12` [compound 131, 2-(3-chlorophenyl)-N-(3-(diethylamino)propyl)benzo [d]imidazo[2,1-b]thiazole-7-carboxamide] was run?
Answer: ++ (++ ≥5 and <6)

Question: How did the “Myc Efficacy (−LogEC50)” value turn out when `O=C(NCCCN1CCCCC1)c1ccc2c(c1)sc1nc(-c3ccc(Cl)cc3)cn12` [compound 132, 2-(4-chlorophenyl)-N-(3-(piperidin-1-yl)propyl) benzo[d]imidazo[2,1-b]thiazole-7-carboxamide] was run?
Answer: ++ (++ ≥5 and <6)

Question: Which “Myc Efficacy (−LogEC50)” value does the source give for `Cc1cccc(-c2cn3c(n2)sc2cc(C(=O)NCCCN4CCC(F)(F)CC4)ccc23)c1` [compound 133, N-(3-(4,4-difluoropiperidin-1-yl)propyl)-2-(m-tolyl)benzo[d]imidazo[2,1-b]thiazole-7-carboxamide] here?
Answer: ++ (++ ≥5 and <6)

Question: How did the “Myc Efficacy (−LogEC50)” value turn out when `Cc1cccc(-c2cn3c(n2)sc2cc(C(=O)NCCCN4CCOCC4)ccc23)c1` [compound 134, N-(3-morpholinopropyl)-2-(m-tolyl)benzo[d]imidazo[2,1-b]thiazole-7-carboxamide] was run?
Answer: + (+ >3 and <5)

Question: For `Cc1cccc(-c2cn3c(n2)sc2cc(C(=O)NCCCN4CCS(=O)(=O)CC4)ccc23)c1` [compound 135, N-(3-(1,1-dioxidothiomorpholino)propyl)-2-(m-tolyl)benzo[d]imidazo[2,1-b]thiazole-7-carboxamide], which “Myc Efficacy (−LogEC50)” value is on record?
Answer: + (+ >3 and <5)

Question: How did the “Myc Efficacy (−LogEC50)” value turn out when `CCN(CC)CCCNC(=O)c1ccc2c(c1)sc1nc(-c3ccc(C(C)C)cc3)cn12` [compound 136, N-(3-(diethylamino)propyl)-2-(4-isopropylphenyl)benzo[d] imidazo[2,1-b]thiazole-7-carboxamide formate] was run?
Answer: ++ (++ ≥5 and <6)

Question: Which “Myc Efficacy (−LogEC50)” value does the source give for `Cc1cccc(-c2cn3c(n2)sc2cc(C(=O)NCCCN4CCC(F)CC4)ccc23)c1` [compound 137, N-(3-(4-fluoropiperidin-1-yl)propyl)-2-(m-tolyl)benzo[d]imidazo[2,1-b]thiazole-7-carboxamide] here?
Answer: ++ (++ ≥5 and <6)

Question: `Cc1cccc(-c2cn3c(n2)sc2cc(C(=O)N[C@H]4C[C@@H](N5CCCCC5)C4)ccc23)c1` [compound 138, N-((1s,3s)-3-(piperidin-1-yl)cyclobutyl)-2-(m-tolyl)benzo[d]imidazo[2,1-b]thiazole-7-carboxamide] was tested. Which “Myc Efficacy (−LogEC50)” value did it give?
Answer: ++ (++ ≥5 and <6)

Question: `Cc1cccc(-c2cn3c(n2)sc2cc(C(=O)NCCCC4CCOCC4)ccc23)c1` [compound 139, N-(3-(tetrahydro-2H-pyran-4-yl)propyl)-2-(m-tolyl)benzo[d]imidazo[2,1-b]thiazole-7-carboxamide] was tested. Which “Myc Efficacy (−LogEC50)” value did it give?
Answer: + (+ >3 and <5)

Question: `Cc1cccc(-c2cn3c(n2)sc2cc(C(=O)NC4CCNCC4)ccc23)c1` [compound 140, N-(piperidin-4-yl)-2-(m-tolyl)benzo[d]imidazo[2,1-b]thiazole-7-carboxamide] was tested. Which “Myc Efficacy (−LogEC50)” value did it give?
Answer: ++ (++ ≥5 and <6)

Question: Which “Myc Efficacy (−LogEC50)” value does the source give for `Cc1cccc(-c2cn3c(n2)sc2cc(C(=O)N4CCNCC4)ccc23)c1` [compound 141, piperazin-1-yl(2-(m-tolyl)benzo[d]imidazo[2,1-b]thiazol-7-yl)methanone] here?
Answer: + (+ >3 and <5)

Question: With `CCN(CC)CCCNC(=O)c1ccc2c(c1)sc1nc(-c3ccc(OC)cc3)cn12` [compound 142, N-(3-(diethylamino)propyl)-2-(4-methoxyphenyl)benzo[d] imidazo[2,1-b]thiazole-7-carboxamide] as the compound, how does the “Myc Efficacy (−LogEC50)” value read?
Answer: ++ (++ ≥5 and <6)

Question: `CCN(CC)CCCNC(=O)c1ccc2c(c1)sc1nc(-c3cccc(C)c3F)cn12` [compound 143, N-(3-(diethylamino)propyl)-2-(2-fluoro-3-methylphenyl)benzo[d] imidazo[2,1-b]thiazole-7-carboxamide] was tested. Which “Myc Efficacy (−LogEC50)” value did it give?
Answer: ++ (++ ≥5 and <6)

Question: Which “Myc Efficacy (−LogEC50)” value does the source give for `CCN(CC)CCCNC(=O)c1ccc2c(c1)sc1nc(-c3cc(C)ccc3F)cn12` [compound 144, N-(3-(diethylamino)propyl)-2-(2-fluoro-5-methylphenyl)benzo[d] imidazo[2,1-b]thiazole-7-carboxamide] here?
Answer: + (+ >3 and <5)

Question: For `CCN(CC)CCCNC(=O)c1ccc2c(c1)sc1nc(-c3cccc(C#N)c3)cn12` [compound 145, 2-(3-cyanophenyl)-N-(3-(diethylamino)propyl)benzo [d]imidazo[2,1-b]thiazole-7-carboxamide], which “Myc Efficacy (−LogEC50)” value is on record?
Answer: ++ (++ ≥5 and <6)

Question: For `Cc1cccc(-c2cn3c(n2)sc2cc(C(=O)NCCCN4CCCC4)ccc23)c1` [compound 149, N-(3-(pyrrolidin-1-yl)propyl)-2-(m-tolyl)benzo[d]imidazo[2,1-b]thiazole-7-carboxamide], which “Myc Efficacy (−LogEC50)” value is on record?
Answer: ++ (++ ≥5 and <6)

Question: With `Cc1cccc(-c2cn3c(n2)sc2cc(C(=O)NCCCN4CCCC4=O)ccc23)c1` [compound 150, N-(3-(2-oxopyrrolidin-1-yl)propyl)-2-(m-tolyl)benzo[d]imidazo[2,1-b]thiazole-7-carboxamide] as the compound, how does the “Myc Efficacy (−LogEC50)” value read?
Answer: + (+ >3 and <5)

Question: With `Cc1cccc(-c2cn3c(n2)sc2cc(C(=O)N[C@H]4C[C@H](N5CCCCC5)C4)ccc23)c1` [compound 151, N-((1r,3r)-3-(piperidin-1-yl)cyclobutyl)-2-(m-tolyl)benzo[d]imidazo[2,1-b]thiazole-7-carboxamide] as the compound, how does the “Myc Efficacy (−LogEC50)” value read?
Answer: + (+ >3 and <5)

Question: `CCN(CC)CCCNC(=O)c1ccc2c(c1)sc1nc(-c3cccc(OC)c3)cn12` [compound 152, N-(3-(diethylamino)propyl)-2-(3-methoxyphenyl)benzo[d] imidazo[2,1-b]thiazole-7-carboxamide] was tested. Which “Myc Efficacy (−LogEC50)” value did it give?
Answer: ++ (++ ≥5 and <6)

Question: `CCN(CC)CCCNC(=O)c1ccc2c(c1)sc1nc(-c3cccc(-c4ccccc4)c3)cn12` [compound 153, 2-([1,1′-biphenyl]-3-yl)-N-(3-(diethylamino)propyl)benzo [d]imidazo[2,1-b]thiazole-7-carboxamide] was tested. Which “Myc Efficacy (−LogEC50)” value did it give?
Answer: + (+ >3 and <5)

Question: `CCN(CC)CCCNC(=O)c1ccc2c(c1)sc1nc(-c3ccc(C(=O)N(C)C)cc3)cn12` [compound 154, N-(3-(diethylamino)propyl)-2-(4-(dimethylcarbamoyl)phenyl) benzo[d]imidazo[2,1-b]thiazole-7-carboxamide formate] was tested. Which “Myc Efficacy (−LogEC50)” value did it give?
Answer: + (+ >3 and <5)

Question: How did the “Myc Efficacy (−LogEC50)” value turn out when `CCNCCCNC(=O)c1ccc2c(c1)sc1nc(-c3cccc(C)c3)cn12` [compound 155] was run?
Answer: ++ (++ ≥5 and <6)

Question: With `Cc1cccc(-c2cn3c(n2)sc2cc(C(=O)NCCC4CCCN4)ccc23)c1` (centres unmarked) [compound 156, N-(2-(pyrrolidin-2-yl)ethyl)-2-(m-tolyl)benzo[d]imidazo[2,1-b]thiazole-7-carboxamide] as the compound, how does the “Myc Efficacy (−LogEC50)” value read?
Answer: ++ (++ ≥5 and <6)

Question: How did the “Myc Efficacy (−LogEC50)” value turn out when `CN[C@H]1C[C@@H](NC(=O)c2ccc3c(c2)sc2nc(-c4cccc(C)c4)cn23)C1` [compound 157, N-((1s,3s)-3-(methylamino)cyclobutyl)-2-(m-tolyl)benzo[d]imidazo[2,1-b]thiazole-7-carboxamide formate] was run?
Answer: ++ (++ ≥5 and <6)

Question: `CN[C@H]1C[C@H](NC(=O)c2ccc3c(c2)sc2nc(-c4cccc(C)c4)cn23)C1` [compound 158, N-((1r,3r)-3-(methylamino)cyclobutyl)-2-(m-tolyl)benzo[d]imidazo[2,1-b]thiazole-7-carboxamide formate] was tested. Which “Myc Efficacy (−LogEC50)” value did it give?
Answer: ++ (++ ≥5 and <6)

Question: `Cc1cccc(-c2cn3c(n2)sc2cc(C(=O)NCCC(=O)N4CCCC4)ccc23)c1` [compound 159, N-(3-oxo-3-(pyrrolidin-1-yl)propyl)-2-(m-tolyl)benzo[d]imidazo[2,1-b]thiazole-7-carboxamide] was tested. Which “Myc Efficacy (−LogEC50)” value did it give?
Answer: + (+ >3 and <5)

Question: How did the “Myc Efficacy (−LogEC50)” value turn out when `CCN(CC)CCCNC(=O)c1ccc2c(c1)sc1nc(-c3ccc(C#N)cc3)cn12` [compound 160, 2-(4-cyanophenyl)-N-(3-(diethylamino)propyl)benzo [d]imidazo[2,1-b]thiazole-7-carboxamide] was run?
Answer: + (+ >3 and <5)

Question: For `CCN(CC)CCCNC(=O)c1ccc2c(c1)sc1nc(-c3ccncc3)cn12` [compound 161, N-(3-(diethylamino)propyl)-2-(pyridin-4-yl)benzo[d]imidazo[2,1-b]thiazole-7-carboxamide], which “Myc Efficacy (−LogEC50)” value is on record?
Answer: +++ (+++ ≥6)

Question: For `CCN(CC)CCCNC(=O)c1ccc2c(c1)sc1nc(N3CCOCC3)cn12` [compound 162, N-(3-(diethylamino)propyl)-2-morpholinobenzo[d]imidazo [2,1-b]thiazole-7-carboxamide], which “Myc Efficacy (−LogEC50)” value is on record?
Answer: − (− ≤3)

Question: For `CCN(CC)CCCNC(=O)c1ccc2c(c1)sc1nc(-c3ccc(CN)cc3)cn12` [compound 163, 2-(4-(aminomethyl)phenyl)-N-(3-(diethylamino)propyl)benzo [d]imidazo[2,1-b]thiazole-7-carboxamide], which “Myc Efficacy (−LogEC50)” value is on record?
Answer: +++ (+++ ≥6)

Question: How did the “Myc Efficacy (−LogEC50)” value turn out when `CCN(CC)CCCNC(=O)c1ccc2c(c1)sc1nc(-c3ccc(NC)cc3)cn12` [compound 164, N-(3-(diethylamino)propyl)-2-(4-(methylamino)phenyl)benzo [d]imidazo[2,1-b]thiazole-7-carboxamide] was run?
Answer: +++ (+++ ≥6)
